Holding throughout (format): biochemical
In one assay the target is T1, HDAC6 enzyme (Homo sapiens, UniProt Q9UBN7).
T1 construct: transducing full length HDAC1 and HDAC6 genes into Sf-9 insect cells; GST; purchased SignalChem; host or cells: Sf-9 insect cells
T1 sequence (Q9UBN7 1-1215): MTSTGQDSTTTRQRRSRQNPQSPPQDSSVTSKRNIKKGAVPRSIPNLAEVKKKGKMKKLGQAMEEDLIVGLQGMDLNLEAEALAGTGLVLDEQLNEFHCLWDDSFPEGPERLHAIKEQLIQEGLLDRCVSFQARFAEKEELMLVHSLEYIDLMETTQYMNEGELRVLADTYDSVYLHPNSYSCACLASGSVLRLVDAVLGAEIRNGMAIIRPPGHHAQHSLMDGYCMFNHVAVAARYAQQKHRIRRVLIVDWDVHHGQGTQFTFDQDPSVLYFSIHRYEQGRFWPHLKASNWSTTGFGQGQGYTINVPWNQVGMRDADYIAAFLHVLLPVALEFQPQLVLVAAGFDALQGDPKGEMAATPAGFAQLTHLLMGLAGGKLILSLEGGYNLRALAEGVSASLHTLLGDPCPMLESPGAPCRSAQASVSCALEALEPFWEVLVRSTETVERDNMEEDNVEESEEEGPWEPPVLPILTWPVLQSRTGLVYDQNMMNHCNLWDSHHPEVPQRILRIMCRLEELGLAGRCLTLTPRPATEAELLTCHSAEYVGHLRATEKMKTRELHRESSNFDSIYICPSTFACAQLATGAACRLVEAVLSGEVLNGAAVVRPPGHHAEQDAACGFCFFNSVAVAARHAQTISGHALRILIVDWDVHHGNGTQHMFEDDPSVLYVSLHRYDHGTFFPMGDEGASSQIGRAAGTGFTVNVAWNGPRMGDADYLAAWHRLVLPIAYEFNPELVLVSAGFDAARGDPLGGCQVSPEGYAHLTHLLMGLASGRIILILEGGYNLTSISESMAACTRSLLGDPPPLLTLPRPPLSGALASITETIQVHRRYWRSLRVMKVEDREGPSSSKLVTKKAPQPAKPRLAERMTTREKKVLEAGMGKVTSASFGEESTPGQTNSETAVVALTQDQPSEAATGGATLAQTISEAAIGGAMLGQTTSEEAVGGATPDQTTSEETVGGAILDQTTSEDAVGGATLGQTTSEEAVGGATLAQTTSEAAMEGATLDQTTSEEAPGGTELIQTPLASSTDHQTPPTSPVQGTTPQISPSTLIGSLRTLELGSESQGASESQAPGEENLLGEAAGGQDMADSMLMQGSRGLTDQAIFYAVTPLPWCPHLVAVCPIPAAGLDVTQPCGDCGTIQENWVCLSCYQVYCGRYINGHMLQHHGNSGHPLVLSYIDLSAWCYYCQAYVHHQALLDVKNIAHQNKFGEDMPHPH
The assay is described as follows: HDAC6 enzyme inhibitory assay (HDAC-Glo I/II Assay kit). As to conditions: 1 μM test compound; wells without enzyme = 100% inhibition; read-out: HDAC6 inhibitory rate (%) (1 μM). The protocol:
(§1) HDAC1/6 Enzyme Inhibitory Assay
(§2) HDAC1 enzyme and HDAC6 enzyme each prepared by transducing full length HDAC1 and HDAC6 genes into Sf-9 insect cells and purifying by GST affinity column were purchased from SignalChem. Using these enzymes, HDAC1 and/or HDAC6 enzyme inhibitory activities of the compound of the present invention were evaluated. Enzymes were used after preserved at −70° C. HDAC1 or HDAC6 enzyme inhibitory activity of the compound of the present invention was measured using HDAC-Glo™ I/II Assay kit (Promega) according to the following experimental method. The test compound diluted with assay buffer (24 mM Tris-HCl (pH 7.5), 1 mM MgCl2, 0.35 mM KCl, 135 mM NaCl, 0.6 mM Glutathione, 0.01% Tween-20) was added to a 384-well plate by each 2 μL. Then, HDAC1 or HDAC6 enzyme solution diluted with assay buffer was added thereto by each 4 μL, and the plate was incubated at room temperature for 60 min. After incubated, HDAC substrate-Developer solution prepared according to Promega protocol attached to the assay kit was added to the 384-well plate by each 2 μL, and the enzyme reaction was started. After reacting at room temperature for 20 min, luminescence level was measured using plate reader Envision (PerkinElmer). The inhibitory activity of each compound was calculated as a relative activity value when luminescence level in wells without enzyme is considered as 100% inhibition.

In another assay the target is T2, HDAC1 enzyme (Homo sapiens, UniProt Q13547).
T2 construct: transducing full length HDAC1 and HDAC6 genes into Sf-9 insect cells; GST; purchased SignalChem; host or cells: Sf-9 insect cells
T2 sequence (Q13547 whole entry): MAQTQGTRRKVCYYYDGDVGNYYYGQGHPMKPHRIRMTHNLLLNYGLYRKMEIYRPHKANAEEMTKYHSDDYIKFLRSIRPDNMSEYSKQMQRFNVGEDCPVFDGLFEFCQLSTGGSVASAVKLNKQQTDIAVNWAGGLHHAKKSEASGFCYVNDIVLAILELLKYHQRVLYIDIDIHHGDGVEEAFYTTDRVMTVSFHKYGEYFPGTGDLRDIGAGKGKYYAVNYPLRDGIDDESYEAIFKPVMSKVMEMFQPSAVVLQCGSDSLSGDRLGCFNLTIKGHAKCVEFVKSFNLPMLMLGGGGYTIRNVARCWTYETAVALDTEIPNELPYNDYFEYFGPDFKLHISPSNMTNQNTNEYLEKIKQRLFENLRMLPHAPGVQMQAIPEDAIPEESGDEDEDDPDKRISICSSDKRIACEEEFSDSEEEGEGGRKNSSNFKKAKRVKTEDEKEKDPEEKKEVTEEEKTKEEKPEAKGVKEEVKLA
As to the kind of experiment: HDAC1 enzyme inhibitory assay (HDAC-Glo I/II Assay kit). Conditions: 1 μM test compound; wells without enzyme = 100% inhibition; read-out: HDAC1 inhibitory rate (%) (1 μM). The protocol:
as §1, §2

The target in the next assay is T3, HDAC9 enzyme (Homo sapiens, UniProt Q9UKV0).
T3 construct: transducing full length HDAC9 gene into Sf-9 insect cells; made in house; host or cells: Sf-9 insect cells
T3 sequence (Q9UKV0 whole entry, species assumed): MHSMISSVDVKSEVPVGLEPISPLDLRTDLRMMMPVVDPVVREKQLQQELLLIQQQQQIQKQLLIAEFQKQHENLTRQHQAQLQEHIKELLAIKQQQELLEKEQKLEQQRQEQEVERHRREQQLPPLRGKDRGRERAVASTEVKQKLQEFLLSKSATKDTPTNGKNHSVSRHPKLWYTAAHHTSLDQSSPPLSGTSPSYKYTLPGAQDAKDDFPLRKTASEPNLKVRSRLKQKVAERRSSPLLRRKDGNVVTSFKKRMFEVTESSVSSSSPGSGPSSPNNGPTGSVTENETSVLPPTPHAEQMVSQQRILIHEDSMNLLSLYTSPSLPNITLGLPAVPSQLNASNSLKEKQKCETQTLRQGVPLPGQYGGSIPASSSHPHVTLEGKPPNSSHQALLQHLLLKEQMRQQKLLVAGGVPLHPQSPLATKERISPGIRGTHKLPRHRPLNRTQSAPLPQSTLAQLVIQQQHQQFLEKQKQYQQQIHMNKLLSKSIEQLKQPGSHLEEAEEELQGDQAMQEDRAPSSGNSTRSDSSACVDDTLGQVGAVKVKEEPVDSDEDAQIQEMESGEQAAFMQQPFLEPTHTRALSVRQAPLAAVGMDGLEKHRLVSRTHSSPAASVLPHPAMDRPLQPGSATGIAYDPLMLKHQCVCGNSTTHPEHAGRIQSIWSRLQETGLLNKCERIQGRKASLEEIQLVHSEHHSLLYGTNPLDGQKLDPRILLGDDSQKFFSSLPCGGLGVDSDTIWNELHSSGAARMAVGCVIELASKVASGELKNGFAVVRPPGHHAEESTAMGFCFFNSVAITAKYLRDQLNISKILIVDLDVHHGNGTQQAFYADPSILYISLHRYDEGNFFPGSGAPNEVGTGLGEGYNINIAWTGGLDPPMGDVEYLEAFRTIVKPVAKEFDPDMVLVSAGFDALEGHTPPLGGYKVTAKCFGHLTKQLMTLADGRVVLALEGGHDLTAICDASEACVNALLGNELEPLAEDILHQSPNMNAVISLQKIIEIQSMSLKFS
As to the kind of experiment: HDAC9 enzyme inhibitory assay (HDAC-Glo class IIa). As to conditions: 1 μM test compound; wells without enzyme = 100% inhibition; read-out: HDAC9 inhibitory rate (%) (1 μM). On the procedure:
HDAC9 Enzyme Inhibitory Assay
Enzyme was prepared by transducing full length HDAC9 gene into Sf-9 insect cells and purifying by Ni-NTA affinity column, and HDAC9 enzyme inhibitory activity was evaluated. Enzymes were used after preserved at −70° C. HDAC9 enzyme inhibitory activity of the test compound was measured using HDAC-Glo class IIa (Promega) according to the following experimental method. The test compound diluted with assay buffer (24 mM Tris-HCl (pH 7.5), 1 mM MgCl2, 0.35 mM KCl, 135 mM NaCl, 0.6 mM Glutathione, 0.01% Tween-20) was added to a 384-well plate by each 2 μL. Then, HDAC9 enzyme solution diluted with assay buffer was added thereto by each 2 μL, and the plate was incubated at room temperature for 60 min. After incubated, HDAC substrate-Developer solution prepared according to Promega protocol was added to the 384-well plate by each 4 μL, and the enzyme reaction was started. After reacting at room temperature for 20 min, luminescence level was measured using plate reader Envision (PerkinElmer). The inhibitory activity of each compound was calculated as a relative activity value when luminescence level in wells without enzyme is considered as 100% inhibition.

Drawing on patent publication US10357484B2, “Heterocyclic compound” (Takeda Pharmaceutical Company Limited, priority 2015, dated 2019), this text covers inhibition for 17 compounds.

Turning to `O=C1c2cc(-c3noc(C(F)(F)F)n3)ccc2CN1Cc1ccccc1Oc1ccccc1` [Example 11, 2-(2-phenoxybenzyl)-6-(5-(trifluoromethyl)-1,2,4-oxadiazol-3-yl)isoindolin-1-one], the inhibition at 1 µM stood at 68% at HDAC6 enzyme, 4% on HDAC1 enzyme and 5% on HDAC9 enzyme.
In the case of `O=C1c2cc(-c3noc(C(F)(F)F)n3)ccc2CN1Cc1cccc(Oc2ccccc2)c1` [Example 10, 2-(3-phenoxybenzyl)-6-(5-(trifluoromethyl)-1,2,4-oxadiazol-3-yl)isoindolin-1-one], the inhibition at 1 µM at HDAC6 enzyme amounted to 28%; on HDAC1 enzyme, 15%; on HDAC9 enzyme, 52%.
The corresponding values for `O=C1c2cc(-c3noc(C(F)(F)F)n3)ccc2CN1Cc1ccccn1` [Example 32] are 99%, 13% and 77%.
In the case of `CN(c1ncccc1CN1Cc2ccc(-c3noc(C(F)(F)F)n3)cc2C1=O)S(C)(=O)=O` [Example 35, N-methyl-N-(3-((1-oxo-6-(5-(trifluoromethyl)-1,2,4-oxadiazol-3-yl)-1,3-dihydro-2H-isoindol-2-yl)methyl)pyridin-2-yl)methanesulfonamide], the inhibition at 1 µM at HDAC6 enzyme was 97%; at HDAC1 enzyme, 6%; at HDAC9 enzyme, 61%.
For `O=C1c2cc(-c3noc(C(F)(F)F)n3)cnc2CN1Cc1ccccc1` [Example 1, 6-benzyl-3-(5-(trifluoromethyl)-1,2,4-oxadiazol-3-yl)-6,7-dihydro-5H-pyrrolo[3,4-b]pyridin-5-one], the inhibition at 1 µM on HDAC6 enzyme stood at 101%; on HDAC1 enzyme it was 61%; at HDAC9 enzyme, 94%.
`C[C@@H](c1ccc(F)cc1OC(F)F)N1Cc2ccc(-c3noc(C(F)(F)F)n3)cc2C1=O` [Example 21, 2-((1S)-1-(2-(difluoromethoxy)-4-fluorophenyl)ethyl)-6-(5-(trifluoromethyl)-1,2,4-oxadiazol-3 yl)isoindolin-1-one]: the figures for the inhibition at 1 µM on HDAC6 enzyme, at HDAC1 enzyme and at HDAC9 enzyme were 96%, 18% and 73%, respectively.
The corresponding values for `COc1ccccc1CN1Cc2ccc(-c3noc(C(F)(F)F)n3)cc2C1=O` [Example 12, 2-(2-methoxybenzyl)-6-(5-(trifluoromethyl)-1,2,4-oxadiazol-3-yl)isoindolin-1-one] are 96%, 23% and 76%.
For the compound `COc1cc(F)ccc1[C@H](C)N1Cc2ccc(-c3noc(C(F)(F)F)n3)cc2C1=O` [Example 20, 2-((S)-1-(4-fluoro-2-methoxyphenyl)ethyl)-6-(5-(trifluoromethyl)-1,2,4-oxadiazol-yl)isoindolin-1-one], the inhibition at 1 µM came to 95% at HDAC6 enzyme, 16% at HDAC1 enzyme and 66% on HDAC9 enzyme.
On to `COc1ccc([C@H](C)N2Cc3ccc(-c4noc(C(F)(F)F)n4)cc3C2=O)cc1` [Example 18, 2-((1S)-1-(4-methoxyphenyl)ethyl)-6-(5-(trifluoromethyl)-1,2,4-oxadiazol-3-yl)isoindolin-1-one], for which the inhibition at 1 µM is 91% on HDAC6 enzyme, 27% at HDAC1 enzyme and 89% on HDAC9 enzyme.
On to `COc1cc(CN2Cc3ccc(-c4noc(C(F)(F)F)n4)cc3C2=O)ccc1OCC1CCCO1` (stereo not drawn) [Example 31, 2-(3-methoxy-4-(tetrahydrofuran-2-ylmethoxy)benzyl)-6-(5-(trifluoromethyl)-1,2,4-oxadiazol-3-yl)isoindolin-1-one], for which the inhibition at 1 µM worked out at 94% at HDAC6 enzyme, 40% on HDAC1 enzyme and 92% on HDAC9 enzyme.
On to `O=C1c2cc(-c3noc(C(F)(F)F)n3)ccc2CN1Cc1ccccc1Cl` [Example 25, 2-(2-chlorobenzyl)-6-(5-(trifluoromethyl)-1,2,4-oxadiazol-3-yl)isoindolin-1-one], for which the results for the inhibition at 1 µM on HDAC6 enzyme, on HDAC1 enzyme and on HDAC9 enzyme were 94%, 11% and 64%, respectively.
Turning to `C[C@@H](c1ccccc1)N1Cc2ccc(-c3noc(C(F)(F)F)n3)cc2C1=O` [Example 8, 2-((1S)-1-phenylethyl)-6-(5-(trifluoromethyl)-1,2,4-oxadiazol-3-yl)isoindolin-1-one], the results for the inhibition at 1 µM on HDAC6 enzyme, at HDAC1 enzyme and at HDAC9 enzyme were 99%, 19% and 87%, respectively.
Take `O=C1c2cc(-c3noc(C(F)(F)F)n3)ccc2CN1Cc1ccccc1F` [Example 24, 2-(2-fluorobenzyl)-6-(5-(trifluoromethyl)-1,2,4-oxadiazol-3-yl)isoindolin-1-one]: the inhibition at 1 µM at HDAC6 enzyme was 97%; at HDAC1 enzyme it was 17%; at HDAC9 enzyme, 75%.
On to `C[C@@H](c1cccc2ccccc12)N1Cc2ccc(-c3noc(C(F)(F)F)n3)cc2C1=O` [Example 22, 2-((1S)-1-(1-naphthyl)ethyl)-6-(5-(trifluoromethyl)-1,2,4-oxadiazol-3-yl)isoindolin-1-one], for which the inhibition at 1 µM was 92% on HDAC6 enzyme, 3% on HDAC1 enzyme and 82% on HDAC9 enzyme.
Regarding `O=C1c2cc(-c3noc(C(F)(F)F)n3)ccc2CN1Cc1c(F)cccc1F` [Example 27, 2-(2,6-difluorobenzyl)-6-(5-(trifluoromethyl)-1,2,4-oxadiazol-3-yl)isoindolin-1-one], the results for the inhibition at 1 µM at HDAC6 enzyme, at HDAC1 enzyme and on HDAC9 enzyme were 96%, 21% and 76%, respectively.
The corresponding values for `CS(=O)(=O)c1ccc(CN2Cc3ccc(-c4noc(C(F)(F)F)n4)cc3C2=O)cc1` [Example 30, 2-(4-(methylsulfonyl)benzyl)-6-(5-(trifluoromethyl)-1,2,4-oxadiazol-3-yl)isoindolin-1-one] are 94%, 30% and 83%.
For `N#Cc1ccc(CN2Cc3ccc(-c4noc(C(F)(F)F)n4)cc3C2=O)cc1` [Example 29, 4-((1-oxo-6-(5-(trifluoromethyl)-1,2,4-oxadiazol-3-yl)-1,3-dihydro-2H-isoindol-2-yl)methyl)benzonitrile], the inhibition at 1 µM on HDAC6 enzyme came to 94%; at HDAC1 enzyme, 23%; on HDAC9 enzyme, 74%.
